The values below come from ChEMBL document CHEMBL1158658, “Pyrrolizidine Alkaloids From Middle Eastern Plants” (1979).

Holding throughout (assay type): functional
The subject of assay [1] is P388. The assay is described as follows: Antitumor activity against mouse P388 cells xenografted in male organism at 800 mg/kg relative to control.
Assay [2] has as its system P388. The assay is described as follows: Antitumor activity against mouse P388 cells xenografted in male organism at 400 mg/kg relative to control.
Assay [3] concerns P388. The assay can be described thus: Antitumor activity against mouse P388 cells xenografted in male organism at 200 mg/kg relative to control.
Assay [4] concerns P388. The assay is described as follows: Antitumor activity against mouse P388 cells xenografted in male organism at 100 mg/kg relative to control.
Assay [5] relates to P388. The assay can be described thus: Antitumor activity against mouse P388 cells xenografted in female organism at 800 mg/kg relative to control.
Assay [6] concerns P388. The assay can be described thus: Antitumor activity against mouse P388 cells xenografted in female organism at 400 mg/kg relative to control.
Assay [7] deals with P388. The assay can be described thus: Antitumor activity against mouse P388 cells xenografted in female organism at 200 mg/kg relative to control.
Assay [8] relates to P388. The assay can be described thus: Antitumor activity against mouse P388 cells xenografted in female organism at 100 mg/kg relative to control.
Assay [9] deals with P388. The assay is described as follows: Antitumor activity against mouse P388 cells xenografted in female organism at 50 mg/kg relative to control.

Regarding `CO[C@@H](C)[C@](O)(C(=O)OCC1=CC[N+]2([O-])CC[C@H](O)[C@@H]12)C(C)(C)O` (stereo not given in full), the T/C was 111 in the assay with P388 [1], 129 with P388 [2], 102 in the assay on P388 [3] and 111 in the assay with P388 [4].

Take `CC(C)[C@@](O)(C(=O)OCC1=CC[N+]2([O-])CC[C@H](O)[C@@H]12)[C@H](C)O` (stereo not given in full): the T/C is recorded as 145 in the assay with P388 [5]; 138 with P388 [6]; 118 with P388 [7]; 113 in the assay on P388 [8]; 109 with P388 [9].

As to `CC(C)[C@](O)(C(=O)OCC1=CC[N+]2([O-])CC[C@@H](O)[C@@H]12)[C@H](C)O` (stereo not given in full) [INDICINE N-OXIDE], the T/C with P388 [1] came to 187; with P388 [2], 165; in the assay with P388 [3] it was 147; with P388 [5] it was 109; with P388 [6] it was 136; in the assay on P388 [7] it was 130.
